Entries after “also recorded” stand apart in the source; their conditions may differ.
What was measured:
[1] = log P, n-octanol/water partition coefficient; format: physicochemical
Text: The term log P is the n-octanol/water partition coefficients of the material.
The copper to be removed is inside the hair and the chelant needs to penetrate inside hair and form a strong copper-chelant complex. This copper-chelant complex needs to be water soluble and thus easily removed during the rinsing process. […] These are log P, the octanol/water partitioning coefficient, and the molecular weight of the chelant. Both are related to the ability of the chelant to penetrate into hair and also form a water soluble copper-chelant complex

[2] = log of formation constant of complex with copper; cited from earlier work
[3] = Copper on hair after repeat shampoo wash cycles (ICP-OES), versus shampoo without chelant; conditions: for Copper Removing Performance from Shampoo: clarifying shampoo containing the chelant, 20 cycles, copper content of hair compared to shampoo without the chelant; for reduction/removal of copper on hair compared to shampoo without chelant (in words): 10 shampoo cycles; for reduction/removal of copper on hair compared to control shampoo (in words): 20 shampoo cycles, clarifying shampoo; for reduces copper by: shampoo composition containing 0.1 wt % chelant, 20 cleaning cycles, compared to shampoo without the chelant
Experimental: The copper removing performance of the shampoo composition is determined by treating hair with clarifying shampoo containing the corresponding chelant for 20 cycles and comparing the copper content of the hair compared to the same treatment using shampoo without the chelant.
(§1) All testing are performed on colored hair switches (see Method of Measurement of Copper on Hair below) weighing approximately […] and having a length of approximately 6 inches. The hair switches are commercially available from IHIP (International Hair Importers). Three hair switches per sampoo composition are used. An amount of […] of shampoo is spread via a syringe onto separate hair switch. That is, the dosage is 0.10 g of shampoo per g of hair. Each application consists of adding shampoo to the hair, milking for 30 seconds followed by rinsing for 30 seconds. Shampoo is then reapplied (0.1 g/g), milked for 30 seconds and rinsed for 30 seconds. Excess water is squeezed from the hair switches and left to air dry or treated with a rinse-off conditioner and/or a leave-on treatment composition. This protocol is repeated for a number of times/cycles (as indicated in the tables below, which describe the details of hair treatments).
The following test method is used to assess the ability of the compositions and regimens to remove copper from the hair and to inhibit copper deposition onto the hair.
Hair switches are colored once with an oxidative hair colorant. An extra blonde shade is used for the testing. The hair switches are washed for 10 or 20 repeat wash cycles in tap water containing 7 grains per gallon water hardness (Ca/Mg) and 0.06 μg/g copper ions. Each wash cycle consists of two applications of 0.1 g/g a shampoo to the hair switches. Each application consists of adding shampoo to the hair, milking for 30 secs followed by rinsing for 30 secs. Shampoo is then reapplied 0.1 g/g, milked for 30 secs, rinsed for 30 secs and then dried in a heat box (60° C.) until dry.
Samples of 100 mg of hair are digested overnight with 2 ml of high purity concentrated nitric acid. The digestive mixture also contains 150 μL of 100 μg/g Yttrium internal standard (Inorganic Ventures, Christianburg, Va., USA). Following digestion, samples are heated to 70-80° C. for one hour, cooled to room temperature and diluted to 15 mL with deionized water. Copper content of the hair switches is determined by inductively coupled plasma atomic spectroscopy (ICP-OES)). For each leg, 3 different samples are analyzed.
In order to minimize the variability of the resulting copper content on hair that is related to (a) lot-to-lot viariability due to hair switches and (b) day-to-day variability of the water used during shampoo and conditioner treatments, a single lot of hair switches is used for each experimental series and a separate control experiment/treatment is run for each experimental series (see below).

[4] = Copper on hair after regimen cycles of shampoo, rinse-off conditioner and leave-on treatment (ICP-OES); conditions: 20 conditioning shampoo/rinse-off conditioner/leave-on treatment regimen cycles
Experimental: as §1
The following test method is used to assess the ability of the compositions and regimens to remove copper from the hair and to inhibit copper deposition onto the hair. […]
Samples of 100 mg of hair are digested overnight with 2 ml of high purity concentrated nitric acid. […] Copper content of the hair switches is determined by inductively coupled plasma atomic spectroscopy (ICP-OES)). For each leg, 3 different samples are analyzed. […]

| logP [1] | Structure (SMILES) | Log KML Cu [2] | Copper Removing Performance from Shampoo [3] | reduction/removal of copper on hair compared to control shampoo (in words) [3] | further results |
| --- | --- | --- | --- | --- | --- |
| -2.1 | NCCCNCCCNCCCN [1,5,9,13-Tetraazatridecane] | 17.1 | 15% | – | – |
| -2.7 | NCCNCCNCCNCCN [2,4-Tetraethylenepentamine] | 22.8 | 60% | more effective treatements | – |
| -2.9 | OCCN(CCO)CCN(CCO)CCN(CCO)CCN(CCO)CCN(CCO)CCO [Tetraethylenepentaamine-(1-EO)] | – | – | – | – |
| -2.2 | NCCN(CCN)CCN [Tris(2-aminoethyl)amine] | 18.8 | 45% | – | reduction/removal of copper on hair compared to shampoo without chelant (in words) [3]: effective removal of copper from hair |

The remaining lines, values behind:

| Structure (SMILES) | logP [1] | Log KML Cu [2] | Copper Removing Performance from Shampoo [3] | reduction/removal of copper on hair compared to control shampoo (in words) [3] | further results |
| --- | --- | --- | --- | --- | --- |
| NCCNCCNCCN [2,3-Triethylenetetramine] | -2.3 | 20.1 | 70% | effective removal of copper from hair; also recorded: more effective treatements | removal of copper from hair compared to control regimen (in words) [4]: effective removal of copper from hair; reduction/removal of copper on hair compared to shampoo without chelant (in words) [3]: significant reduction of copper content on hair |
| CC(O)CN(CCN(CC(C)O)CC(C)O)CC(C)O (stereo not shown) [Ethylenedinitrilotetrapropan-2-ol] | – | 9.8 | 30% | effective removal of copper from hair | Log P [1]: −0.2 |
| O=C(O)CN(CCO)CC(=O)O [N-(2-hydroxyethyl)iminodiacetic acid] | – | – | – | – | reduces copper by [3]: 30% |
| CC(O)CN(CCN(CC(C)O)CC(C)O)CCN(CC(C)O)CC(C)O (stereo not shown) [Pentrol] | – | – | – | – | Log P [1]: −0.2 |
| O=C(O)CNCC(=O)O [iminodiacetic acid] | – | – | – | – | reduces copper by [3]: 40% |
